Test results from patent publication CN114848615A, “和厚朴酚小分子自主装纳米粒及制备方法” (Tianjin University, priority 2022, dated 2022).

Assay: SEM/TEM characterisation and appearance/distribution in water
Format: physicochemical
Details: in words

distribution/appearance in water: 形成浑浊的白色浆液
SMILES: C=CCc1ccc(O)c(-c2ccc(O)c(CC=C)c2)c1 [HK, 和厚朴酚]
